ChEMBL document CHEMBL4699655, “Optimization of the In Vivo Potency of Pyrazolopyrimidine MALT1 Protease Inhibitors by Reducing Metabolism and Increasing Potency in Whole Blood” (J Med Chem, 2020)

What was measured:
[1] = Intrinsic clearance in human liver microsomes; format: ADME, Microsome; conditions: read-out: CLH
[2] = Intrinsic clearance in rat liver microsomes; format: ADME, Microsome; conditions: read-out: CLH
[3] = molecular target: T1, Mucosa-associated lymphoid tissue lymphoma translocation protein 1 (Homo sapiens, UniProt Q9UDY8); assay: Inhibition of MALT1 (unknown origin) using Ac-Trp-Leu-Arg-Ser-Arg^Cys(PT14)-NH2 as substrate preincubated for 60 mins followed by substrate addition and measured after 60 mins by fluorescence assay
T1 sequence (Q9UDY8 whole entry): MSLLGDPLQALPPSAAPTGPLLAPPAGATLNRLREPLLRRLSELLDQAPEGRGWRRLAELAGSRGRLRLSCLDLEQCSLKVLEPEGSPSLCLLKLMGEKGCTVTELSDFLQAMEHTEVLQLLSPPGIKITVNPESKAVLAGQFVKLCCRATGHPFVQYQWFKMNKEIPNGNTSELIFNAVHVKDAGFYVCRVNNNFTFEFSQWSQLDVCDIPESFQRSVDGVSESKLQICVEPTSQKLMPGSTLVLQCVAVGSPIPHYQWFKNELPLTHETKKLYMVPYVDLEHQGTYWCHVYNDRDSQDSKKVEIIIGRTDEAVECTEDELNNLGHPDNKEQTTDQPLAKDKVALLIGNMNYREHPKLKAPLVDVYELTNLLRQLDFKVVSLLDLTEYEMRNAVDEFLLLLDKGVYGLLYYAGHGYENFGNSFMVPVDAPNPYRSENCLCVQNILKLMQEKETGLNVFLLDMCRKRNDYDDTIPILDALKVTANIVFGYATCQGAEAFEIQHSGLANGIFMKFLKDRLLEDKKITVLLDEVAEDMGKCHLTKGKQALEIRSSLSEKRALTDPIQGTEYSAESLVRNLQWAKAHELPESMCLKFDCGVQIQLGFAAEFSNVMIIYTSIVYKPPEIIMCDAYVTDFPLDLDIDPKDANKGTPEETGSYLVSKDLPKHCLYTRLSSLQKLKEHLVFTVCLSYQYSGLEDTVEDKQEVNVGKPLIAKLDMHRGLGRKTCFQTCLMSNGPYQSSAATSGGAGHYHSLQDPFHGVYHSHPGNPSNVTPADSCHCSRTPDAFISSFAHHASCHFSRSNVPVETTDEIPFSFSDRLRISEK

[4] = Protein binding in human plasma; format: ADME, cell-free; conditions: read-out: PPB (converted)
[5] = Protein binding in rat plasma; format: ADME, cell-free; conditions: read-out: PPB (converted)
[6] = Lipophilicity, logP of the compound; conditions: octanol/water
[7] = Intrinsic clearance in mouse liver microsomes; format: ADME, Microsome; conditions: read-out: CLH
[8] = Clearance in rat at 1 mg/kg, iv via cassette dosing; format: ADME, organism-based; conditions: in vivo
[9] = Half life in rat at 1 mg/kg, iv via cassette dosing; format: ADME, organism-based; conditions: in vivo
Rattus norvegicus [10] = assay: Anti-autoimmune disease activity in OFA rat model of T-cell dependent B cell response assessed as reduction in SRBC-induced IgM producing B cells at 3 mg/kg, po BID for 4 days starting 2 days prior to immunization by ex vivo plaque forming assay relative to control; conditions: 96 h, read-out: INH
Rattus norvegicus [11] = assay: Anti-autoimmune disease activity in OFA rat model of T-cell dependent B cell response assessed as reduction in SRBC-induced IgM producing B cells at 10 mg/kg, po BID for 4 days starting 2 days prior to immunization by ex vivo plaque forming assay relative to control; conditions: 96 h, read-out: INH
Rattus norvegicus [12] = assay: Anti-autoimmune disease activity in OFA rat model of T-cell dependent B cell response assessed as reduction in SRBC-induced IgM producing B cells dosed orally twice daily for 4 days starting 2 days prior to immunization by ex vivo plaque forming assay relative to control; format: functional
[13] = Cmax in blood of OFA rat model of T-cell dependent B cell response at 3 mg/kg, po BID for 4 days starting 2 days prior to immunization and measured after 3 hrs; format: ADME, organism-based; parameters: route oral, dose 3 mg/kg, time 4 day
[14] = Cmax in blood of OFA rat model of T-cell dependent B cell response at 3 mg/kg, po BID for 4 days starting 2 days prior to immunization and measured after 14 hrs; format: ADME, organism-based; parameters: route oral, dose 3 mg/kg, time 4 day
[15] = Cmax in blood of OFA rat model of T-cell dependent B cell response at 10 mg/kg, po BID for 4 days starting 2 days prior to immunization and measured after 3 hrs; format: ADME, organism-based; parameters: route oral, dose 10 mg/kg, time 4 day
[16] = Cmax in blood of OFA rat model of T-cell dependent B cell response at 10 mg/kg, po BID for 4 days starting 2 days prior to immunization and measured after 14 hrs; format: ADME, organism-based; parameters: route oral, time 4 day, dose 10 mg/kg
[17] = Oral bioavailability in Balb/C mouse at 3 mg/kg; format: ADME, organism-based; conditions: in vivo
[18] = Clearance in Sprague-Dawley rat at 1 mg/kg, iv; format: ADME, organism-based; conditions: in vivo
[19] = Clearance in Balb/C mouse at 1 mg/kg, iv; format: ADME, organism-based; conditions: in vivo
[20] = Terminal half life in Sprague-Dawley rat at 1 mg/kg, iv; format: ADME, organism-based; conditions: in vivo, read-out: beta t1/2 (converted)
[21] = Terminal half life in Balb/C mouse at 1 mg/kg, iv; format: ADME, organism-based; conditions: in vivo, read-out: beta t1/2 (converted)
[22] = Apparent volume of distribution at steady state in Sprague-Dawley rat at 1 mg/kg, iv; format: ADME, organism-based; conditions: in vivo, read-out: Vdss(app)
[23] = Apparent volume of distribution at steady state in Balb/C mouse at 1 mg/kg, iv; format: ADME, organism-based; conditions: in vivo, read-out: Vdss(app)
[24] = AUC (0 to 24 hrs) in Sprague-Dawley rat at 3 mg/kg, po; format: ADME, organism-based; parameters: time < 24 hr, route oral, dose 3 mg/kg; conditions: in vivo
[25] = AUC (0 to 24 hrs) in Balb/C mouse at 3 mg/kg, po; format: ADME, organism-based; parameters: time < 24 hr, route oral, dose 3 mg/kg; conditions: in vivo
[26] = Cmax in Sprague-Dawley rat at 3 mg/kg, po; format: ADME, organism-based; parameters: route oral, dose 3 mg/kg; conditions: in vivo
[27] = Cmax in Balb/C mouse at 3 mg/kg, po; format: ADME, organism-based; parameters: route oral, dose 3 mg/kg; conditions: in vivo
[28] = Oral bioavailability in Sprague-Dawley rat at 3 mg/kg; format: ADME, organism-based; conditions: in vivo
[29] = Clearance in mouse; format: ADME, organism-based; conditions: in vivo
[30] = Clearance in rat; format: ADME; conditions: in vivo
[31] = molecular target: T1, Mucosa-associated lymphoid tissue lymphoma translocation protein 1; assay: Inhibition of MALT1 in human whole blood assessed as reduction in PMA//anti-CD28 antibody-induced IL2 level pre-incubated for 1 hrs before stimulation with PMA//anti-CD28 antibody by MSD assay; format: tissue-based
[32] = molecular target: T2, Mucosa-associated lymphoid tissue lymphoma translocation protein 1 (Homo sapiens) (UniProt Q9UDY8); assay: Ratio of IC50 for inhibition of MALT1 in human whole blood assessed as reduction in PMA//anti-CD28 antibody-induced IL2 level to IC50 for inhibition of MALT1 in PMA-stimulated human Jurkat T cells assessed as reduction in IL2 level; format: tissue-based
T2 sequence (whole entry): T1 sequence (Q9UDY8 whole entry)

microsomal CLint [1] | microsomal CLint [2] | fraction unbound [4] | fraction unbound [5] | logP [6] | microsomal CLint [7] | SMILES | also measured
61 µL/min/mg | < 25 µL/min/mg | – | – | – | – | CC(C)c1c(NC(=O)Nc2ccnc(C(F)(F)F)c2)cnc2cc(Cl)nn12 | –
< 25 µL/min/mg | < 25 µL/min/mg | – | – | – | – | Cc1c(NC(=O)Nc2ccnc(C(F)(F)F)c2)cnc2cc(Cl)nn12 | IC50 [3]: 0.998 µM
– | < 25 µL/min/mg | 0.023 | 0.032 | – | – | CO[C@H](C)c1c(NC(=O)Nc2cnc(-n3nccn3)c(Cl)c2)cnc2cc(Cl)nn12 | –
< 25 µL/min/mg | 25.5 µL/min/mg | 0.012 | 0.023 | 3 | – | O=C(Nc1cnc(-n2nccn2)c(Cl)c1)Nc1cnc2cc(Cl)nn2c1C1CCOCC1 | –
< 25 µL/min/mg | < 25 µL/min/mg | < 0.01 | < 0.01 | 4 | < 25 µL/min/mg | CC(C)c1c(NC(=O)Nc2cnc(-n3nccn3)c(Cl)c2)cnc2cc(Cl)nn12 | clearance [8]: 18 mL/min/kg; half-life [9]: 5.4 h; inhibition in vivo at 3 mg/kg (Rattus norvegicus [10]): 60%; inhibition in vivo at 10 mg/kg (Rattus norvegicus [11]): 96%; ED50 (Rattus norvegicus [12]; po, 96 h, time 4 day): 3 mg/kg; Activity (Rattus norvegicus [12]; time 4.0 day): Dose-dependent effect; Cmax [13]: 1500 nM; Cmax [14]: 400 nM; Cmax [15]: 7600 nM; Cmax [16]: 3300 nM
81.4 µL/min/mg | 60.9 µL/min/mg | 0.014 | 0.012 | 3.4 | < 25 µL/min/mg | COC[C@H](C)c1c(NC(=O)Nc2cnc(-n3nccn3)c(Cl)c2)cnc2cc(Cl)nn12 | –
< 25 µL/min/mg | < 25 µL/min/mg | 0.038 | 0.027 | – | < 25 µL/min/mg | CO[C@@H](C)c1c(NC(=O)Nc2ccnc(C(F)(F)F)c2)cnc2cc(Cl)nn12 | bioavailability [17]: 50%; clearance [18]: 9 mL/min/kg; clearance [19]: 28 mL/min/kg; half-life [20]: 9.6 h; half-life [21]: 1.2 h; Vd [22]: 5.3 L/kg; Vd [23]: 3 L/kg; AUC [24]: 13.4 µM·h; AUC [25]: 2.3 µM·h; Cmax [26]: 700 nM; Cmax [27]: 500 nM; bioavailability [28]: 86%
< 25 µL/min/mg | < 25 µL/min/mg | 0.019 | 0.035 | 3 | – | COCc1c(NC(=O)Nc2cnc(-n3nccn3)c(Cl)c2)cnc2cc(Cl)nn12 | –
< 25 µL/min/mg | 70.1 µL/min/mg | 0.015 | 0.011 | 3.4 | – | COC[C@@H](C)c1c(NC(=O)Nc2cnc(-n3nccn3)c(Cl)c2)cnc2cc(Cl)nn12 | –
< 25 µL/min/mg | 50.4 µL/min/mg | < 0.01 | 0.013 | 3.2 | < 25 µL/min/mg | O=C(Nc1cnc(-n2nccn2)c(Cl)c1)Nc1cnc2cc(Cl)nn2c1C1CC1 | –
114 µL/min/mg | – | – | – | – | – | C[C@H]1COC[C@H](C)N1c1c(NC(=O)Nc2ccnc(C(F)(F)F)c2)cnc2cc(Cl)nn12 | clearance [29]: 15 mL/min/kg; clearance [30]: 25 mL/min/kg; IC50 [31]: 9 µM; clearance [8]: 46 mL/min/kg; half-life [9]: 3.3 h; Ratio IC50 [32]: 50
